Measured values taken from BigSolDB 2.1.

COc1ccc2c(c1)c(CC(=O)O)c(C)n2C(=O)c1ccc(Cl)cc1
solubility (mole fraction)
Settings | 293.15 K | 298.15 K | 303.15 K | 308.15 K | 313.15 K
in 1,4-dioxane | 0.0249 | 0.029 | 0.0343 | 0.0416 | 0.0477
in water | 7.81e-07 | 9.32e-07 | 1.1e-06 | 1.27e-06 | 1.52e-06
